# According to ChEMBL document CHEMBL1133456, “Synthesis and anticonvulsant activity of novel and potent 6,7-methylenedioxyphthalazin-1(2H)-ones” (J Med Chem, 2000):
# Assays:
# [1] = Relative lipophilicity expressed as Rm value; format: physicochemical; conditions: octanol/water
# [2] = Anticonvulsant activity against audiogenic seizures in DBA/2 mice in clonic phase at a time interval of 30 min after intraperitoneal administration; Values ranges from: 9.04-49.8; format: functional; conditions: Mus musculus, ip, 0.5 h
# [3] = Anticonvulsant activity against audiogenic seizures in DBA/2 mice in clonic phase at a time interval of 45 min after intraperitoneal administration; Values ranges from: 13.8-41.2; format: functional; conditions: Mus musculus, ip, 0.75 h
# [4] = Anticonvulsant activity against audiogenic seizures in DBA/2 mice in clonic phase at a time interval of 60 min after intraperitoneal administration; Values ranges from: 18.8-47.0; format: functional; conditions: Mus musculus, ip, 1 h
# [5] = Anticonvulsant activity against audiogenic seizures in DBA/2 mice after pretreatment with Aniracetam expressed as ED50 values in clonic phase; Values ranges from: 40.9-79.2; format: functional; conditions: Mus musculus
# [6] = Anticonvulsant activity against audiogenic seizures in DBA/2 mice after pretreatment with Aniracetam expressed as ED50 values in tonic phase; Values ranges from: 21.9-46.8; format: functional; conditions: Mus musculus
# [7] = Anticonvulsant activity against audiogenic seizures in DBA/2 mice in clonic phase at a time interval of 90 min after intraperitoneal administration; Values ranges from: 30.5-62.3; format: functional; conditions: Mus musculus, ip, 1.5 h
# [8] = Anticonvulsant activity against audiogenic seizures in DBA/2 mice expressed as ED50 values in clonic phase; Values ranges from: 9.04-49.8; format: functional; conditions: Mus musculus
# [9] = Anticonvulsant activity against audiogenic seizures in DBA/2 mice expressed as ED50 values in tonic phase; Values ranges from: 2.47-23.1; format: functional; conditions: Mus musculus
# [10] = Anticonvulsant activity against audiogenic seizures in DBA/2 mice in clonic phase at a time interval of 120 min after intraperitoneal administration; format: functional; conditions: Mus musculus, ip, 2 h
# [11] = Anticonvulsant activity against audiogenic seizures in DBA/2 mice in clonic phase at a time interval of 15 min after intraperitoneal administration; Values ranges from: 25.1-42.6; format: functional; conditions: Mus musculus, ip, 0.25 h
# [12] = Anticonvulsant activity against ATPA induced seizures in DBA/2 mice expressed as ED50 values in tonic phase; Values ranges from: 22.7-44.8; format: functional; conditions: Mus musculus
# [13] = Anticonvulsant activity against AMPA induced seizures in DBA/2 mice expressed as ED50 values in clonic phase; Values ranges from: 27.1-47.3; format: functional; conditions: Mus musculus
# [14] = Anticonvulsant activity against ATPA induced seizures in DBA/2 mice expressed as ED50 values in clonic phase; Values ranges from: 25.8-57.7; format: functional; conditions: Mus musculus
# [15] = Toxic dose in DBA/2 mice; Values ranges from: 44.3-81.6; format: toxicity; conditions: DBA/2, mouse, in vivo
# [16] = Anticonvulsant activity against KA induced seizures in swiss mice; Values ranges from: 30.3-50.1; format: functional; conditions: Mus musculus
# [17] = Anticonvulsant activity against Pentylenetetrazole (PTZ) induced seizures in Swiss mice; Values ranges from: 30.9-78.8; format: functional; conditions: Mus musculus
# [18] = Anticonvulsant activity against maximal electroshock (MES) induced seizures in Swiss mice; Values ranges from: 29.9-57.3; format: functional; conditions: Mus musculus
# [19] = Ratio between TD50 and ED50 from the clonic phase of audiogenic seizures in mice; format: ADME, organism-based; conditions: mouse, in vivo; read-out: Protective index
# [20] = Anticonvulsant activity against AMPA induced seizures in DBA/2 mice expressed as ED50 values in tonic phase; Values ranges from: 32.6-62.7; format: functional; conditions: Mus musculus
# [21] = Anticonvulsant activity against audiogenic seizures in DBA/2 mice expressed as ED50 values in clonic phase; format: functional; conditions: Mus musculus
# [22] = Anticonvulsant activity against audiogenic seizures in DBA/2 mice expressed as ED50 values in tonic phase; format: functional; conditions: Mus musculus
# [23] = Toxic dose in DBA/2 mice; format: toxicity; conditions: DBA/2, mouse, in vivo
# [24] = Ratio between TD50 and ED50 from the clonic phase of audiogenic seizures; format: ADME; conditions: read-out: Protective index
# [25] = Anticonvulsant activity against audiogenic seizures in DBA/2 mice expressed as ED50 values in tonic phases; Values ranges from: 4.02-19.9; format: functional; conditions: Mus musculus
# [26] = Anticonvulsant activity against audiogenic seizures in DBA/2 mice expressed as ED50 values in clonic phase; Values ranges from: 6.52-35.4; format: functional; conditions: Mus musculus
# [27] = Toxic dose in DBA/2 mice; Values ranges from: 36.1-82.9; format: toxicity; conditions: DBA/2, mouse, in vivo
# [28] = Anticonvulsant activity against audiogenic seizures in DBA/2 mice expressed as ED50 values in clonic phase; […]; format: functional; conditions: Mus musculus
# [29] = Anticonvulsant activity against audiogenic seizures in DBA/2 mice expressed as ED50 values in tonic phase; Values ranges from: 8.98-27.3; format: functional; conditions: Mus musculus
# [30] = Toxic dose in DBA/2 mice; Values ranges from: 59.5-88.2; format: toxicity; conditions: DBA/2, mouse, in vivo
# [31] = Anticonvulsant activity against audiogenic seizures in DBA/2 mice expressed as ED50 values in clonic phase; Values ranges from: 22.0-35.1; format: functional; conditions: Mus musculus
# [32] = Anticonvulsant activity against audiogenic seizures in DBA/2 mice expressed as ED50 values in tonic phase; Values ranges from: 16.1-31.5; format: functional; conditions: Mus musculus
# [33] = Toxic dose in DBA/2 mice; Values ranges from: 59.6-132; format: toxicity; conditions: DBA/2, mouse, in vivo
# [34] = Toxic dose in DBA/2 mice; Values ranges from: 82.6-306; format: toxicity; conditions: DBA/2, mouse, in vivo
# [35] = Anticonvulsant activity against audiogenic seizures in DBA/2 mice in clonic phase at a time interval of 30 min; format: functional; conditions: Mus musculus, 0.5 h
# [36] = Anticonvulsant activity against audiogenic seizures in DBA/2 mice in clonic phase at a time interval of 45 min; format: functional; conditions: Mus musculus, 0.75 h
# [37] = Anticonvulsant activity against audiogenic seizures in DBA/2 mice in clonic phase at a time interval of 60 min; format: functional; conditions: Mus musculus, 1 h
# [38] = Anticonvulsant activity against audiogenic seizures in DBA/2 mice in clonic phase at a time interval of 90 min; format: functional; conditions: Mus musculus, 1.5 h
# [39] = Anticonvulsant activity against KA induced seizures in DBA/2 mice; format: functional; conditions: Mus musculus
# [40] = Anticonvulsant activity against AMPA induced seizures in DBA/2 mice expressed as ED50 values in clonic phase; format: functional; conditions: Mus musculus
# [41] = Anticonvulsant activity against audiogenic seizures in DBA/2 mice after pretreatment with Aniracetam expressed as ED50 values in clonic phase; format: functional, Mus musculus
# [42] = Anticonvulsant activity against audiogenic seizures in DBA/2 mice in clonic phase at a time interval of 120 min; format: functional; conditions: Mus musculus, 2 h
# [43] = Anticonvulsant activity against audiogenic seizures in DBA/2 mice in clonic phase at a time interval of 15 min; format: functional; conditions: Mus musculus, 0.25 h
# [44] = Anticonvulsant activity against AMPA induced seizures in DBA/2 mice expressed as ED50 values in tonic phase; format: functional; conditions: Mus musculus
# [45] = Anticonvulsant activity against ATPA induced seizures in DBA/2 mice expressed as ED50 values in clonic phase; format: functional; conditions: Mus musculus
# [46] = Anticonvulsant activity against ATPA induced seizures in DBA/2 mice expressed as ED50 values in tonic phase; format: functional; conditions: Mus musculus
# [47] = Anticonvulsant activity against Pentylenetetrazole (PTZ) induced seizures in Swiss mice.; format: functional; conditions: Mus musculus
# [48] = Anticonvulsant activity against maximal electroshock (MES) induced seizures in Swiss mice.; format: functional; conditions: Mus musculus
# [49] = Anticonvulsant activity against audiogenic seizures in DBA/2 mice expressed as ED50 values in clonic phase; Values ranges from: 24.4-55.1; format: functional; conditions: Mus musculus
# [50] = Toxic dose in DBA/2 mice; Values ranges from: 74.8-169; format: toxicity; conditions: DBA/2, mouse, in vivo
# [51] = Anticonvulsant activity against audiogenic seizures in DBA/2 mice expressed as ED50 values in tonic phase; Values ranges from: 19.4-50.6; format: functional; conditions: Mus musculus
# [52] = Toxic dose in DBA/2 mice; Values ranges from: 72.4-135; format: toxicity; conditions: DBA/2, mouse, in vivo
smiles,measurement,setting,value
Nc1ccc(-c2nnc(O)c3cc4c(cc23)OCO4)cc1,Rm,[1],-0.454
same,ED50,[2],21.2 µmol/kg
same,ED50,[3],23.8 µmol/kg
same,ED50,[4],29.7 µmol/kg
same,ED50,[5],56.9 µmol/kg
same,ED50,[6],32 µmol/kg
same,ED50,[7],43.6 µmol/kg
same,ED50,[8],21.2 µmol/kg
same,ED50,[9],7.56 µmol/kg
same,ED50,[10],> 50 µmol/kg
same,ED50,[11],32.7 µmol/kg
same,ED50,[12],31.9 µmol/kg
same,ED50,[13],35.8 µmol/kg
same,ED50,[14],38.6 µmol/kg
same,TD50,[15],60.1 µmol/kg
same,ED50,[16],38.9 µmol/kg
same,ED50,[17],49.4 µmol/kg
same,ED50,[18],41.4 µmol/kg
same,selectivity ratio,[19],2.8
same,ED50,[20],45.2 µmol/kg
CNC(=O)n1nc(-c2ccc(N)cc2)c2cc3c(cc2c1=O)OCO3,Rm,[1],-0.364
same,ED50,[21],23.4 µmol/kg
same,ED50,[22],16.8 µmol/kg
same,TD50,[23],59.4 µmol/kg
same,selectivity ratio,[24],2.5
Nc1ccc(-c2nnc(S)c3cc4c(cc23)OCO4)cc1,Rm,[1],-0.205
same,ED50,[25],8.94 µmol/kg
same,ED50,[26],15.2 µmol/kg
same,TD50,[27],54.7 µmol/kg
same,selectivity ratio,[19],3.6
Nc1cccc(-c2nnc(O)c3cc4c(cc23)OCO4)c1,Rm,[1],-0.399
same,ED50,[28],23.3 µmol/kg
same,ED50,[29],15.7 µmol/kg
same,TD50,[30],72.4 µmol/kg
same,selectivity ratio,[19],3.1
Sc1nnc(-c2ccccc2)c2cc3c(cc12)OCO3,Rm,[1],0.05
same,ED50,[31],27.8 µmol/kg
same,ED50,[32],22.5 µmol/kg
same,TD50,[33],89 µmol/kg
same,selectivity ratio,[19],3.2
O=C1Cc2cc3c(cc2C(c2ccccc2)=NN1)OCO3,Rm,[1],-0.142
same,TD50,[34],159 µmol/kg
same,selectivity ratio,[19],3.7
CCCCNC(=O)n1nc(-c2ccc(N)cc2)c2cc3c(cc2c1=O)OCO3,Rm,[1],0.002
same,ED50,[35],3.25 µmol/kg
same,ED50,[36],8.63 µmol/kg
same,ED50,[37],11.2 µmol/kg
same,ED50,[38],26.6 µmol/kg
same,ED50,[39],36.2 µmol/kg
same,ED50,[40],37 µmol/kg
same,ED50,[41],12.3 µM/kg
same,ED50,"[41]; Mus musculus, read-out: ED50",17.6 µmol/kg
same,ED50,[21],3.25 µmol/kg
same,ED50,[22],2.23 µmol/kg
same,ED50,[42],44.1 µmol/kg
same,ED50,[43],13.9 µmol/kg
same,ED50,[44],47.4 µmol/kg
same,ED50,[45],36.2 µmol/kg
same,ED50,[46],30.1 µmol/kg
same,TD50,[23],20.4 µmol/kg
same,ED50,[47],41.9 µmol/kg
same,ED50,[48],33.1 µmol/kg
same,selectivity ratio,[24],6.3
Oc1nnc(-c2ccccc2)c2cc3c(cc12)OCO3,Rm,[1],-0.158
same,ED50,[49],36.7 µmol/kg
same,TD50,[50],112 µmol/kg
same,selectivity ratio,[19],3.1
same,ED50,[51],31.3 µmol/kg
Nc1ccc(C2=NNC(=O)Cc3cc4c(cc32)OCO4)cc1,Rm,[1],-0.43
same,TD50,[52],99.1 µmol/kg
same,selectivity ratio,[19],4.5
